Assay results reported in paper PMC7442650, “A machine learning-based chemoproteomic approach to identify drug targets and binding sites in complex proteomes” (Nature Communications, 2020).
Read-outs that look alike come from different tables or passages of the source.

How the values were obtained:
[1] = target: LDLR (Low-density lipoprotein receptor) (Homo sapiens, UniProt P01130); assay: LiP-Quant, membrane enriched HeLa eluate
Protocol: (§3) HeLa cells were lysed as above (lysate) however 0.3% n-dodecyl-β-D-maltoside (DDM) was added prior to lysis. […] Beads were then centrifuged at 300g for 30 s to pellet and the supernatant was aspirated. Beads were then washed six times (300g, 30 s between washes) and finally eluted in 400 µl of 0.5 M N-acetyl glucosamine (in LiP buffer without detergent) at 4 °C for 30 min. Beads were pelleted at 300g for 30 s and eluate was collected and protein was quantified by BCA test. LiP-Quant assay was performed with membrane enriched eluate in the same manner as described for standard HeLa lysate.

[2] = target: T1, RBM27 (RNA-binding protein 27) (Homo sapiens, UniProt Q9P2N5); assay: LiP-Quant, membrane enriched HeLa eluate
T1 sequence (Q9P2N5 1-1060): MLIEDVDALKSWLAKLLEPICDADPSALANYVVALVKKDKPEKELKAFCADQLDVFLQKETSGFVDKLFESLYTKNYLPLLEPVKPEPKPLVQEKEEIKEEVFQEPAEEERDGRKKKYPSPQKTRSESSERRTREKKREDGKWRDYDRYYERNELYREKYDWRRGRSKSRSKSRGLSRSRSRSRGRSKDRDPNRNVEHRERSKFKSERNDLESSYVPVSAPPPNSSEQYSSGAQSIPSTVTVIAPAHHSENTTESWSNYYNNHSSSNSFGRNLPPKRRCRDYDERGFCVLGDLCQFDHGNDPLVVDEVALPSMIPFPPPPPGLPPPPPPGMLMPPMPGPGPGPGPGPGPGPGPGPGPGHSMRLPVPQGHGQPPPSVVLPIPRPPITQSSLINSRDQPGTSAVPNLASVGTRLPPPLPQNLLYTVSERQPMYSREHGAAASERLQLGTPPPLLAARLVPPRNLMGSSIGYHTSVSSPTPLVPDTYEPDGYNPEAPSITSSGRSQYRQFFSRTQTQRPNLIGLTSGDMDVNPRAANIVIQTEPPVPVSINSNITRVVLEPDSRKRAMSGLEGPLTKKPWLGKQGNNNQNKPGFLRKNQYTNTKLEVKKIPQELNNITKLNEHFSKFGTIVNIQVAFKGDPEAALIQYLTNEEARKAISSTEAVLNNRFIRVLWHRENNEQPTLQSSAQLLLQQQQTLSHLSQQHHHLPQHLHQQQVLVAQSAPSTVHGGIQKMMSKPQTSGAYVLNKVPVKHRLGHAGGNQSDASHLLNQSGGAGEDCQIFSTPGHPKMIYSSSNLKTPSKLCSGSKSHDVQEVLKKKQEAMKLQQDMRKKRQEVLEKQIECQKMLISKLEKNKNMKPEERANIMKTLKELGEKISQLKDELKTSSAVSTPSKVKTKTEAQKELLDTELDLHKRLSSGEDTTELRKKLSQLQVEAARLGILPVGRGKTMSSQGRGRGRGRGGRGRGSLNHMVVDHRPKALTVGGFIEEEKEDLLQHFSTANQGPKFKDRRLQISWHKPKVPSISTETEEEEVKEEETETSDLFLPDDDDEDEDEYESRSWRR
Protocol: as §3

[3] = target: MYH9 (Myosin-9) (Homo sapiens, UniProt P35579); assay: LiP-Quant, membrane enriched HeLa eluate
Sequence of MYH9 (Myosin-9) (P35579 whole entry): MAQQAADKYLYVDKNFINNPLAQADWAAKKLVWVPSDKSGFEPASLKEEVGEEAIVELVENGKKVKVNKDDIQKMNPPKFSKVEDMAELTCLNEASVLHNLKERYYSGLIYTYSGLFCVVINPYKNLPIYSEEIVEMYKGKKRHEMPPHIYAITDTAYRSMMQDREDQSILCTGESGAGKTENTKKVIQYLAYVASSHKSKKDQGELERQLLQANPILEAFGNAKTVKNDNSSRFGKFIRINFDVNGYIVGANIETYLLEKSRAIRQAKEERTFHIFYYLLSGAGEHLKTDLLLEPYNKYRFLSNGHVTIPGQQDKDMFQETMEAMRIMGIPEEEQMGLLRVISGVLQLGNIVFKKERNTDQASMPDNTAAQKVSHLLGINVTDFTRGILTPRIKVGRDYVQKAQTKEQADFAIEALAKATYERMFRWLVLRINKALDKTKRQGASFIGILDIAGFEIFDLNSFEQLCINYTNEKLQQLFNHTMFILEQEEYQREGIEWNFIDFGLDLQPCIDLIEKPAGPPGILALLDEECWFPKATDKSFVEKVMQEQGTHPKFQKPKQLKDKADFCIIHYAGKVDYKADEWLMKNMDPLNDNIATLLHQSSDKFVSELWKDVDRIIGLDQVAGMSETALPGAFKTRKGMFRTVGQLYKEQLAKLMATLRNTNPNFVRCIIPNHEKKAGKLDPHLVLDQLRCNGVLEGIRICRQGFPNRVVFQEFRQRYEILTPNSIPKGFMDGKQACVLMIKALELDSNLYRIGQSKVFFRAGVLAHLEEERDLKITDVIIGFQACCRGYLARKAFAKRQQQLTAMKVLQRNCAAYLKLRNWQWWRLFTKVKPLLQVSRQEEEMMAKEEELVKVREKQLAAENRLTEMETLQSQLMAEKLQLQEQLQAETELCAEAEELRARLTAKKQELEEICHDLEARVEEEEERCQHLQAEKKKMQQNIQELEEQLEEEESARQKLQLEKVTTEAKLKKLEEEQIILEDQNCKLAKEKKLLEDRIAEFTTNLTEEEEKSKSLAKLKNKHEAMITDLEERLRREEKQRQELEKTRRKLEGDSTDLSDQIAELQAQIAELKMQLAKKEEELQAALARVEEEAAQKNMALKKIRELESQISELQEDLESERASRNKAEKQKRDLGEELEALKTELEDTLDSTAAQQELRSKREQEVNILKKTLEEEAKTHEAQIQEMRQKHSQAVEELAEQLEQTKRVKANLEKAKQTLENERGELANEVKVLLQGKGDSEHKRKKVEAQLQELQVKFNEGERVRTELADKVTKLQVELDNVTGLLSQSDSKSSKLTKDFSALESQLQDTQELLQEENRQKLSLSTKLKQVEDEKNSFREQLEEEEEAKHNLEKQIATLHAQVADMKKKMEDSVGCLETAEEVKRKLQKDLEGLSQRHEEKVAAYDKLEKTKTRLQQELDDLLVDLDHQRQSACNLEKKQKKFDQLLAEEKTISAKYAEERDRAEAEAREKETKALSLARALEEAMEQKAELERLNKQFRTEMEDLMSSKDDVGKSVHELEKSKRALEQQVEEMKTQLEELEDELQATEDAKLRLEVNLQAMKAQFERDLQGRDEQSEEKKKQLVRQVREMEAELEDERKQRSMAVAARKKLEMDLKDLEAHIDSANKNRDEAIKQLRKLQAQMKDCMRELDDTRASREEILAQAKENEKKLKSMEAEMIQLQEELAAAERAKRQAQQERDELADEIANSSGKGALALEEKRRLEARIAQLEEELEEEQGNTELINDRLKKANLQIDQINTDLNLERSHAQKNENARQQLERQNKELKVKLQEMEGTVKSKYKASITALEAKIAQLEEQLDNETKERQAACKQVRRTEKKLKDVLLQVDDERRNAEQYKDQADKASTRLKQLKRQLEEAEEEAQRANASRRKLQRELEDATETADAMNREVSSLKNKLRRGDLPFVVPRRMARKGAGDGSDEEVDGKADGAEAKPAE
Protocol: as §3

[4] = target: ATP1A1 (Sodium/potassium-transporting ATPase subunit alpha-1) (Homo sapiens, UniProt P05023); assay: LiP-Quant, membrane enriched HeLa eluate
Protocol: as §3

[5] = target: MAPK2K1 (MAP2K1) (Homo sapiens, UniProt Q02750); assay: LiP-Quant, HeLa lysate; type: binding
Sequence of MAPK2K1 (MAP2K1) (Q02750 whole entry): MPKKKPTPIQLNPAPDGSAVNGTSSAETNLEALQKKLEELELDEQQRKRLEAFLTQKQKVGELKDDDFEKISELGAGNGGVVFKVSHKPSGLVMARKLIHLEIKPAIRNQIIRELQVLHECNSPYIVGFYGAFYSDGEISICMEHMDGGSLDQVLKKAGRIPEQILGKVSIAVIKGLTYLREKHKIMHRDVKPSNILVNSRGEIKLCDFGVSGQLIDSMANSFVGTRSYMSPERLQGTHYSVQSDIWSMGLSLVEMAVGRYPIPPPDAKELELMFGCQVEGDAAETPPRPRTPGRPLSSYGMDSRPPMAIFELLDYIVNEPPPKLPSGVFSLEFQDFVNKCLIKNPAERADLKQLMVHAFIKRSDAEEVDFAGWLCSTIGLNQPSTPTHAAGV

[6] = target: PLEC (Plectin) (Homo sapiens, UniProt Q15149); assay: LiP-Quant, HeLa lysate; type: binding; settings: peptide QRAEAER
[7] = target: T2, NQO2 (Homo sapiens, UniProt P16083); assay: LiP-Quant, HeLa lysate; type: binding; settings: peptide EEPIPCTAHWHFGQ
T2 sequence (P16083 1-231): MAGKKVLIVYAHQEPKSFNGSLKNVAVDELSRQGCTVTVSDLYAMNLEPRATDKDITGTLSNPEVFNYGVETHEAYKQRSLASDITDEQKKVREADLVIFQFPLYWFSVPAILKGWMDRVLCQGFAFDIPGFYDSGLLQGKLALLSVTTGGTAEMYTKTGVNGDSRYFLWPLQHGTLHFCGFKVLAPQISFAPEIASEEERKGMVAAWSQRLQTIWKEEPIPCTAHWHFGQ

[8] = tested on: MAPK2K1; set-up: method as in PMID 29191878; settings: read-out: EC50 measured with alternative methods; cited from earlier work
[9] = target: XPO1 (Exportin-1) (Homo sapiens, UniProt O14980); assay: LiP-Quant, HeLa lysate; type: binding; settings: peptide NQCEGIKK
Sequence of XPO1 (Exportin-1) (O14980 whole entry): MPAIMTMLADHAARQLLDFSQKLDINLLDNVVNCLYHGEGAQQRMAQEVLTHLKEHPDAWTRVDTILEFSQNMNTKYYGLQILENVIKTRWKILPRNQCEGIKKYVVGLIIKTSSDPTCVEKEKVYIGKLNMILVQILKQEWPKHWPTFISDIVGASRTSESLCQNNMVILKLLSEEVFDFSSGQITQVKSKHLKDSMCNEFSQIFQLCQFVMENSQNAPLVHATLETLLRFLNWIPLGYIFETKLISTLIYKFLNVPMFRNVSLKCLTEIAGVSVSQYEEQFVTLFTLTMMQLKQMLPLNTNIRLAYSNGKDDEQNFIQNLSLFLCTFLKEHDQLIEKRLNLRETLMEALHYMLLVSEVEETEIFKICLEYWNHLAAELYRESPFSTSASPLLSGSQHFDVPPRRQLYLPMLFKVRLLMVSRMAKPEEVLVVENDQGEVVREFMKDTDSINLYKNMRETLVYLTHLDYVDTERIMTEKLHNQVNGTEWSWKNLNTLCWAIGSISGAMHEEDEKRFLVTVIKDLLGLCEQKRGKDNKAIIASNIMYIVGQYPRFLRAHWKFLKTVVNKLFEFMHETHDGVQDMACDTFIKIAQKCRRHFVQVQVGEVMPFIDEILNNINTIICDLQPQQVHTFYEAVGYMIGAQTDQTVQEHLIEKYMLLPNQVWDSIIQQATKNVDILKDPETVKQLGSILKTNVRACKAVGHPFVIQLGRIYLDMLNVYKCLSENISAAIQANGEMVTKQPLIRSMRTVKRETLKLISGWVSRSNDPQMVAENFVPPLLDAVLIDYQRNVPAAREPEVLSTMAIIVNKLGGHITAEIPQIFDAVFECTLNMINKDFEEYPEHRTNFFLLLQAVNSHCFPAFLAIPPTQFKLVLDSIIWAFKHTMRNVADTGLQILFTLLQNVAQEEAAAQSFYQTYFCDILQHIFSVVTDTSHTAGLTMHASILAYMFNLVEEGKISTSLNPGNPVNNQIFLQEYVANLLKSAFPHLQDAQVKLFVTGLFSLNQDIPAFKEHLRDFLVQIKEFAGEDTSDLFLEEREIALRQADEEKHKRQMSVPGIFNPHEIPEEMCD

[10] = target: T3, LIN7C (Homo sapiens, UniProt Q9NUP9); assay: LiP-Quant, HeLa lysate; type: binding; settings: peptide AASEGHSHPR
T3 sequence (Q9NUP9 1-197): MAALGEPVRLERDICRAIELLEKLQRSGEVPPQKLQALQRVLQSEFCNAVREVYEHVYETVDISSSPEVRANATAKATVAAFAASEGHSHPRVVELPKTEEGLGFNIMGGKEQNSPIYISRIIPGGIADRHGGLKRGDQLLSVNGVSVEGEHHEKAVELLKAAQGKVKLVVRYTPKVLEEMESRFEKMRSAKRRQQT

[11] = target: T4, ARI1 (Saccharomyces cerevisiae, UniProt P53111); assay: LiP-Quant, S. cerevisiae lysates; type: binding; settings: wild type yeast lysate
T4 construct: Cell lysates from at least three independent biological replicates were aliquoted in equivalent volumes containing 100 µg of proteome sample; endogenous in cells; host or cells: S. cerevisiae (Euroscarf strains), cryo-milled lysate
Protocol: (§1) To discriminate between these two cases, the same LiP-Quant experiment was performed with lysates where TOR signaling was impaired via a mutation in the tor1 gene and a deletion of the fpr1 gene (tor1-1 Δfpr1)[20].
(§2) Saccharomyces cerevisiae: Cell lysates from at least three independent biological replicates were aliquoted in equivalent volumes containing 100 µg of proteome sample and incubated for 10 min at 25 °C with the drug of interest. […] Samples were then heated again at 98 °C for 3 min in a thermocycler. These samples were then subjected to complete digestion in denaturing conditions as described below.

[12] = target: T5, SYEC (Saccharomyces cerevisiae, UniProt P46655); assay: LiP-Quant, S. cerevisiae lysates; type: binding; settings: wild type yeast lysate
T5 construct: Cell lysates from at least three independent biological replicates were aliquoted in equivalent volumes containing 100 µg of proteome sample; endogenous in cells; host or cells: S. cerevisiae (Euroscarf strains), cryo-milled lysate
Protocol: as §1, §2

[13] = target: T6, FPR1 (FK506-binding protein 1, P20081) (Saccharomyces cerevisiae, UniProt P20081); assay: LiP-Quant, S. cerevisiae lysates (wild type); settings: Yeast WT; for EC50: EC50 (nM)
T6 construct: Cell lysates from at least three independent biological replicates were aliquoted in equivalent volumes containing 100 µg of proteome sample; endogenous in cells; host or cells: S. cerevisiae wild type (Euroscarf), cryo-milled lysate
T6 sequence (P20081 1-114): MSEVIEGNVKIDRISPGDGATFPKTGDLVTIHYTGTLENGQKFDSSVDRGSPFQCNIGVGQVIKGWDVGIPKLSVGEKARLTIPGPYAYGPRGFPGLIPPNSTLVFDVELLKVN

[14] = tested on: PP2A and PP1; settings: cited from earlier work
[15] = target: PPP3CA (Homo sapiens, UniProt Q08209); assay: LiP-Quant, HeLa lysate; type: binding; settings: peptide SDDELGSEEDGFDGATAAAR
Sequence of PPP3CA (P63098 2-170, other chains not shown): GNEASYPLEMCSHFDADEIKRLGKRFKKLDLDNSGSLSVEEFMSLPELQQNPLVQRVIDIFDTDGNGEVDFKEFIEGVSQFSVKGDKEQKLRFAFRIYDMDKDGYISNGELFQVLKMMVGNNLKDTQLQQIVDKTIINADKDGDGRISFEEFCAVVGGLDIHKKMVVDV

[16] = tested on: PP1; assay: LiP-Quant, HeLa lysate; type: binding, human; settings: 16 peptides, read-out: median EC50 across LiP-Quant peptides
Excerpt: Next, we focused on kinases and phosphatases as drug targets of particular pharmacological interest, given their frequent dysregulation in disease, particularly in cancer. One common issue with these classes of targets is their variable selectivity, as some of these drugs have more than one protein target in the cell, and frequently bind them with different affinities, thus it is important to characterize these subtle differences to determine the specific modes of actions.

[17] = target: PPP1CA (Homo sapiens, UniProt P62136); assay: LiP-Quant, HeLa lysate; type: binding; settings: peptide […]
Sequence of PPP1CA (P62136 whole entry): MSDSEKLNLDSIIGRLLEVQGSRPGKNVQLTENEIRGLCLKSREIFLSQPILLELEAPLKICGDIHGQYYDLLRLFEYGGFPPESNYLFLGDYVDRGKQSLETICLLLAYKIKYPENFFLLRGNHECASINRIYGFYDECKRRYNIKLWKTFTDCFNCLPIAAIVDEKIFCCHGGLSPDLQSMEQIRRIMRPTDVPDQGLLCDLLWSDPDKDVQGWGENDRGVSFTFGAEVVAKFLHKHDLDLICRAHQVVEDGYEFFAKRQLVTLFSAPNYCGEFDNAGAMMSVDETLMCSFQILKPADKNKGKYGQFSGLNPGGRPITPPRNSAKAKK

[18] = tested on: PP2A/B (PPP2CA;PPP2CB); assay: LiP-Quant, HeLa lysate; type: binding, human
[19] = target: FKBP1A (Homo sapiens, UniProt P62942)
Sequence of FKBP1A (P62942 whole entry): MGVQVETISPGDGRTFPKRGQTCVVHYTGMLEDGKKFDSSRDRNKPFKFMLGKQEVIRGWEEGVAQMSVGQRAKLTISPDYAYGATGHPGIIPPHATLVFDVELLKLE

[20] = FKBP1A peptide LVFDVELLK, Decreasing
[21] = FKBP1A peptide VFDVELLK, Decreasing
[22] = FKBP1A peptide YTGMLEDGK, Decreasing

Sequence of LDLR (Low-density lipoprotein receptor) (P01130 22-860): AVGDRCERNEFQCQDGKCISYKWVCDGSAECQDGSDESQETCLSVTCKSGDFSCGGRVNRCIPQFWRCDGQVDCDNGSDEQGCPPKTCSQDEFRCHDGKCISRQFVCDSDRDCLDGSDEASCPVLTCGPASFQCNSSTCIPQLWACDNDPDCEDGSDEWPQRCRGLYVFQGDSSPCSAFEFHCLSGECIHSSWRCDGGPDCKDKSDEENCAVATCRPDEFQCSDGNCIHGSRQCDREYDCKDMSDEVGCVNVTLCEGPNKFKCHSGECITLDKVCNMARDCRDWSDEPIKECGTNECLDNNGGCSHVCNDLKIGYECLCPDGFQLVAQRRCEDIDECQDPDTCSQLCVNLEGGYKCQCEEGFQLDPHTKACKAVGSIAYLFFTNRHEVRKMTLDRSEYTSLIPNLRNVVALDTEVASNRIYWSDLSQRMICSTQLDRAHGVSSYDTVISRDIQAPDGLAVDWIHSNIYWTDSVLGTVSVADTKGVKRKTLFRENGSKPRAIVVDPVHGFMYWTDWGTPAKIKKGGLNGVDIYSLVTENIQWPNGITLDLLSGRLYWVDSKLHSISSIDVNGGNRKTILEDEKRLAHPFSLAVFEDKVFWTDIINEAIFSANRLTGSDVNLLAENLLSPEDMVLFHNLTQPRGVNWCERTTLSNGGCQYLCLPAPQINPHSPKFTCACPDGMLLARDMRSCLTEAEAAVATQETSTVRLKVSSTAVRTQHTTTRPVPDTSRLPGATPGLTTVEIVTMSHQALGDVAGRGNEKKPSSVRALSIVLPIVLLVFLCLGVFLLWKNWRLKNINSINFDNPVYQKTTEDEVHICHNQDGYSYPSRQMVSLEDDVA

## C[C@@H]1O[C@@H](O[C@@H]2C=C3CC[C@@H]4[C@H](CC[C@]5(C)[C@@H](c6ccc(=O)oc6)CC[C@]45O)[C@@]3(C)CC2)[C@H](O)[C@H](O)[C@H]1O [proscillaridin A]
[1]
  EC50: 27.3 nM
[1]; peptide TILEDEKR
  DRC: 0.9716
  LiP Rank: 2
  LiP Score: 4.346
[2]
  EC50: 17.3 nM
[2]; peptide LSSGEDTTELR
  DRC: 0.9721
  LiP Rank: 3
  LiP Score: 4.331
[3]
  EC50: 31 nM
[3]; peptide HSQAVEELAEQLEQTKR
  DRC: 0.9583
  LiP Rank: 4
  LiP Score: 4.317
[4]
  EC50: 16.4 nM
[4]; peptide AVAGDASESALLK
  DRC: 0.9716
  LiP Rank: 1
  LiP Score: 4.437

## Cn1cnc2c(F)c(Nc3ccc(Br)cc3Cl)c(C(=O)NOCCO)cc21 [Selumetinib]
[5]; peptide VSIAVIK (selumetinib sheet) or best peptide of the protein (Supp Data 7)
  LIPscore: 2.617
[5]; peptide VSIAVIK (selumetinib sheet) or protein level (Supp Data 7)
  LIPRank: 3
[6]; dose-response correlation
  DRC: 0.9991
[6]
  LIPRank: 1
  LIPscore: 3.316
[7]; dose-response correlation
  DRC: 0.9666
[7]
  LIPRank: 2
  LIPscore: 3.07
[8]
  EC50: 41 nM
[9]; dose-response correlation
  DRC: 0.9996
[9]
  LIPRank: 5
  LIPscore: 2.504
[10]; dose-response correlation
  DRC: 0.9974
[10]
  LIPRank: 4
  LIPscore: 2.585

## CO[C@H]1C[C@@H]2CC[C@@H](C)[C@@](O)(O2)C(=O)C(=O)N2CCCC[C@H]2C(=O)O[C@H]([C@H](C)C[C@@H]2CC[C@@H](O)[C@H](OC)C2)CC(=O)[C@H](C)/C=C(\C)[C@@H](O)[C@@H](OC)C(=O)[C@H](C)C[C@H](C)/C=C/C=C/C=C/1C [Rapamycin]
[11]
  LiP-Quant score: > 2.5
[12]
  LiP-Quant score: > 2.5
[13]; FPR1 peptide _GWDVGIPK_
  EC50: 144 nM
  LiP Rank: 2
  LiP Score: 3.111
[13]; FPR1 peptide _TGDLVTIH_
  EC50: 619 nM
  LiP Rank: 3
[13]; FPR1 peptide _GSPFQCNIGVGQVIK_
  LiP Rank: 1
  LiP Score: 3.228
[13]; FPR1 peptide _RISPGDGATFPK_
  LiP Rank: 4
  LiP Score: 2.974

## COC[C@@H]([C@H](O)[C@H](O)C(=O)NCC[C@H](C)c1nc(/C=C/C[C@@H]2O[C@]3(C[C@@H](O)[C@@H]2C)O[C@H]([C@H](C[C@H](O)[C@H](C)[C@H](O)[C@H](C)/C=C(C)/C(C)=C/C=C/C(C)=C\C#N)OC)[C@H](OP(=O)(O)O)C3(C)C)co1)N(C)C [Calyculin A]
[14]
  EC50 ratio difference between PP2A and PP1: 3.5 fold
[15]
  LiP Rank: 2187
  LiP Score: 0.782
[16]
  EC50: 63 nM
[17]
  LiP Rank: 196
  LiP Score: 1.364
[18]; HeLa lysate, 12 peptides, read-out: median EC50 across LiP-Quant peptides
  EC50: 18 nM
[18]; peptide AHQLVMEGYNWCHDR, PPP2CA
  LiP Score: 4.613
[18]; peptide AHQLVMEGYNWCHDR, PPP2CA, read-out: EC50
  EC50: 11.4 nM
[18]; peptide NVVTIFSAPNYCYR, PPP2CA
  LiP Score: 4.820
[18]; peptide NVVTIFSAPNYCYR, PPP2CA, read-out: EC50
  EC50: 19.3 nM
[18]; peptide YSFLQFDPAPR, PPP2CA
  LiP Score: 5.385
[18]; peptide YSFLQFDPAPR, PPP2CA, read-out: EC50
  EC50: 18.2 nM

## C=CC[C@@H]1/C=C(\C)C[C@H](C)C[C@H](OC)[C@H]2O[C@@](O)(C(=O)C(=O)N3CCCC[C@H]3C(=O)O[C@H](/C(C)=C/[C@@H]3CC[C@@H](O)[C@H](OC)C3)[C@H](C)[C@@H](O)CC1=O)[C@H](C)C[C@@H]2OC [FK506]
[19]; [20]
  LiP Rank: 8
  Score: 1.86
[19]; [21]
  LiP Rank: 10
  Score: 1.73
[19]; [22]
  LiP Rank: 4
  Score: 3.01
[19]; FKBP1A peptide […], Decreasing
  LiP Rank: 11
  Score: 1.72
[19]; FKBP1A peptide […], Increasing
  Score: 3.49
[19]; FKBP1A peptide […], Increasing, Supplementary Data 4
  Score: 3.820
